Results reported in PMC11897524 (Frontiers in Pharmacology, 2025).

What was measured:
Experiment in all cases: SelectScreen Z′-LYTE kinase assay
Type in all cases: biochemical
EPHA4 = EPHA4 (Homo sapiens, UniProt P54764)
Protocol: (§1) The kinase selectivity profile of BST-4 was performed by the SelectScreen kinase profiling service (Thermo Fisher Scientific). Kinase selectivity assay was performed using Z′-LYTE ™ screening protocol kit. Briefly, the test compounds were screened in 1% DMSO (final). For 10-point titrations, perform a 3-fold dilution starting at a starting concentration of 50 µM. Then 2.5 µL 4× test compound, 2.4 µL kinase buffer, 5 µL 2× kinase mixture and 2.5 µL 4× ATP solution was added in black 384-well plate. After shaking for 30 s, the plates were incubated for 60 min at room temperature. Add developing reagent solution and shake the plate for 30 s, then incubate for 1 h at room temperature. The Fluorescence intensity per well was read using a fluorescence plate reader. SelectScreen® Kinase Profiling Service used XLfit from IDBS. The dose response curve was curve fit to model number 205 (sigmoidal dose-response model) and inhibition rates were calculated. 50% inhibition was used as a activity threshold. IC50 values were calculated based on curve fitting.

INSRR = INSRR (Homo sapiens, UniProt P14616)
Protocol: as §1

JAK2 = JAK2 (Homo sapiens, UniProt O60674)
Chain of JAK2 (O60674 whole entry): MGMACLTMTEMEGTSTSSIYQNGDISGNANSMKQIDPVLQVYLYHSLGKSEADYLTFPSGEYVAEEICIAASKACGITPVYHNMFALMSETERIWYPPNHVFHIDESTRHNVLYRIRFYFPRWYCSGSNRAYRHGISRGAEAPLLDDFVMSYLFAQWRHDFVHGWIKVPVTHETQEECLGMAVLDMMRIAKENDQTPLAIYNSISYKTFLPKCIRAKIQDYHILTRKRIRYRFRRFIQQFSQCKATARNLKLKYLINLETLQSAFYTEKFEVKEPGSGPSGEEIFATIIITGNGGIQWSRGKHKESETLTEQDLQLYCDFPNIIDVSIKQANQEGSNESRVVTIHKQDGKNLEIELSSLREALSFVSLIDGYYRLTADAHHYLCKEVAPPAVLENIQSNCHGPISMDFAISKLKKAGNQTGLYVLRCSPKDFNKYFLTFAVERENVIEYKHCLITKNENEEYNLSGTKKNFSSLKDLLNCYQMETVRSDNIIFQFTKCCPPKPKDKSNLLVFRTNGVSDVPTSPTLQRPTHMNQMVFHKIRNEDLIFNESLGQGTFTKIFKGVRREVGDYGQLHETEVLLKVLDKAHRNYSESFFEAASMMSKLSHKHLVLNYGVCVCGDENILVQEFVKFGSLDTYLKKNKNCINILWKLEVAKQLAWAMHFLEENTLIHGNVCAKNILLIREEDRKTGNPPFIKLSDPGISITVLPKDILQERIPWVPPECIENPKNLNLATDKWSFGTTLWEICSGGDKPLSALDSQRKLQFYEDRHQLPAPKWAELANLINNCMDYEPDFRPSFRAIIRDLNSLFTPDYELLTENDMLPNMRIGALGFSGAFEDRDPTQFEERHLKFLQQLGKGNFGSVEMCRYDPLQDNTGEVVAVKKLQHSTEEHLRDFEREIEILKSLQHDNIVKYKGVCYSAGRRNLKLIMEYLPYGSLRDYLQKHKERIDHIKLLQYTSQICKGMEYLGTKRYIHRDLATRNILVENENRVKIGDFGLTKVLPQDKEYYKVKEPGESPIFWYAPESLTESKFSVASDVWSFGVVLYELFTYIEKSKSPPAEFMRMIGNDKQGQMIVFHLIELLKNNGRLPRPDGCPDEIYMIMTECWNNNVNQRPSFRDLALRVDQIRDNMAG
Protocol: as §1

FGFR3 = FGFR3 (Homo sapiens, UniProt P22607)
Chain of FGFR3 (P22607 23-806): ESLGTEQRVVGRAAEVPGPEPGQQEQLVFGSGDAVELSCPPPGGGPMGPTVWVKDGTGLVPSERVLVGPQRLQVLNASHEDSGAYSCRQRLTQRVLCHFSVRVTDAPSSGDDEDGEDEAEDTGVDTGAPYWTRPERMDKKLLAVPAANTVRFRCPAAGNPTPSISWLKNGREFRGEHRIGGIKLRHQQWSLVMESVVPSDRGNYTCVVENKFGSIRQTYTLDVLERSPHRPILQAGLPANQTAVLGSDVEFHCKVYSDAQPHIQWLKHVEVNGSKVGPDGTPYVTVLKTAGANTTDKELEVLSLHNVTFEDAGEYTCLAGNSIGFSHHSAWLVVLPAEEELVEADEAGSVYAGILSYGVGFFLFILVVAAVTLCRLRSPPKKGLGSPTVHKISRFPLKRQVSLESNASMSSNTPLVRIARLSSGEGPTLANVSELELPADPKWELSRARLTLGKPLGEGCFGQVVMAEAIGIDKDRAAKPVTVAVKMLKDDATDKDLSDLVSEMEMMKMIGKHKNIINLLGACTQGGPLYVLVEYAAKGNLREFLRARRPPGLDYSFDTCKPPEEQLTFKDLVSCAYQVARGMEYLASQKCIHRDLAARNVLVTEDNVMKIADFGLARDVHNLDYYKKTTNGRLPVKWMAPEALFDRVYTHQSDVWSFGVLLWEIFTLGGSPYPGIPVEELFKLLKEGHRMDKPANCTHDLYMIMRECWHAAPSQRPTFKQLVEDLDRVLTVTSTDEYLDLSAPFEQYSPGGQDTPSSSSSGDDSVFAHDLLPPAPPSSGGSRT
Protocol: as §1

MST1R = MST1R (Homo sapiens, UniProt Q04912)
Protocol: as §1

SYK = SYK (Homo sapiens, UniProt P43405)
Protocol: as §1

HCK = HCK (Homo sapiens, UniProt P08631)
Protocol: as §1

FER = FER (Homo sapiens, UniProt P16591)
Protocol: as §1

LCK = LCK (Homo sapiens, UniProt P06239)
Chain of LCK (P06239 whole entry): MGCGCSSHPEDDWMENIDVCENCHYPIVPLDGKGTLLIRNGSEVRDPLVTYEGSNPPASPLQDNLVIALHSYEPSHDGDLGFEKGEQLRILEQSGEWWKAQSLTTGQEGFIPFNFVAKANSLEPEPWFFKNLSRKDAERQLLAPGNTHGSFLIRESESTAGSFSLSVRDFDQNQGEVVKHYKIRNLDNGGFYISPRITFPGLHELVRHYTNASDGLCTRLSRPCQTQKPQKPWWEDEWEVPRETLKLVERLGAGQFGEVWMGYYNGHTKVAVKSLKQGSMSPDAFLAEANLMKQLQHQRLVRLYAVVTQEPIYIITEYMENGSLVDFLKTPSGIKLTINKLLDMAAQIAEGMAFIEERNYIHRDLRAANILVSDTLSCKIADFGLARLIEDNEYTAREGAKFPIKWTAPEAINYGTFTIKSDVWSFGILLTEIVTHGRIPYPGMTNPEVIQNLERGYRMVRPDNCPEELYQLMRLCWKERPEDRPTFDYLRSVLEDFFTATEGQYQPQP
Protocol: as §1

PDGFRB = PDGFRB (Homo sapiens, UniProt P09619)
Protocol: as §1

EPHA1 = EPHA1 (Homo sapiens, UniProt P21709)
Protocol: as §1

INSR = INSR (Homo sapiens, UniProt P06213)
Protocol: as §1

TEC = TEC (Homo sapiens, UniProt P42680)
Protocol: as §1

TXK = TXK (Homo sapiens, UniProt P42681)
Protocol: as §1

SRC = SRC (Homo sapiens, UniProt P12931)
Protocol: as §1

CSF1R = CSF1R (Homo sapiens, UniProt P07333)
Protocol: as §1

DDR2 = DDR2 (Homo sapiens, UniProt Q16832)
Protocol: as §1

CSK = CSK (Homo sapiens, UniProt P41240)
Protocol: as §1

JAK1 = JAK1 (Homo sapiens, UniProt P23458)
Protocol: as §1

NTRK2 = NTRK2 (Homo sapiens, UniProt Q16620)
Protocol: as §1

FLT3 = FLT3 (Homo sapiens, UniProt P36888)
Protocol: as §1

PDGFRA = PDGFRA (Homo sapiens, UniProt P16234)
Protocol: as §1

EPHA5 = EPHA5 (Homo sapiens, UniProt P54756)
Protocol: as §1

EPHA8 = EPHA8 (Homo sapiens, UniProt P29322)
Protocol: as §1

IGF1R = IGF1R (Homo sapiens, UniProt P08069)
Protocol: as §1

EPHA7 = EPHA7 (Homo sapiens, UniProt Q15375)
Protocol: as §1

PTK2B = PTK2B (Homo sapiens, UniProt Q14289)
Chain of PTK2B (Q14289 whole entry): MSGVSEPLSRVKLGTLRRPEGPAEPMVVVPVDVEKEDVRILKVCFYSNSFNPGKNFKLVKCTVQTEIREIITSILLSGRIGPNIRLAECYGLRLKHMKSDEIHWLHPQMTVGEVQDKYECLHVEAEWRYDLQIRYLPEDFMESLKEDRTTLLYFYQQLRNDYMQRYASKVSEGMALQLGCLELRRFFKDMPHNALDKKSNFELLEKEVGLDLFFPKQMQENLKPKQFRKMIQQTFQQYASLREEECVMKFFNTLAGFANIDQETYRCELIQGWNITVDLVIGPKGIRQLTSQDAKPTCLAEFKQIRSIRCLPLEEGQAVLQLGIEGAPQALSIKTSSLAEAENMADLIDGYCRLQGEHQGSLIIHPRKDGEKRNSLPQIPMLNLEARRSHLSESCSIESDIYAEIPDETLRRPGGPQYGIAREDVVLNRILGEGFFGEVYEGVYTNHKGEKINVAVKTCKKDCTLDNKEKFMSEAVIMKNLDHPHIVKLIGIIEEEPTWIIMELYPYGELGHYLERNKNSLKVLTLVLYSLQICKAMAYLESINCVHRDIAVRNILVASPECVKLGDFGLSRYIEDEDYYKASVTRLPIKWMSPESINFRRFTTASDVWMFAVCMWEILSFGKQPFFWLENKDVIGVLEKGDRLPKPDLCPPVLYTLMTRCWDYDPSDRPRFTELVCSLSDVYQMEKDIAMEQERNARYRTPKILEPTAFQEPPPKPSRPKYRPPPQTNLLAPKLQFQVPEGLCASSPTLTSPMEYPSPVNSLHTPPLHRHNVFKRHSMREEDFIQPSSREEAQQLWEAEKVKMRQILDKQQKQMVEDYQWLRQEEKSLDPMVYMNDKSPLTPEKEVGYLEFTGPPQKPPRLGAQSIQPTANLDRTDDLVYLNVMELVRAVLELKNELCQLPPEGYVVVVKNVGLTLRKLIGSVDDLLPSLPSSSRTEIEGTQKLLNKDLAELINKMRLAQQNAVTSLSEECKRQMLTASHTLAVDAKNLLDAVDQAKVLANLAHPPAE
Protocol: as §1

ITK = ITK (Homo sapiens, UniProt Q08881)
Protocol: as §1

FRK = FRK (Homo sapiens, UniProt P42685)
Chain of FRK (P42685 whole entry): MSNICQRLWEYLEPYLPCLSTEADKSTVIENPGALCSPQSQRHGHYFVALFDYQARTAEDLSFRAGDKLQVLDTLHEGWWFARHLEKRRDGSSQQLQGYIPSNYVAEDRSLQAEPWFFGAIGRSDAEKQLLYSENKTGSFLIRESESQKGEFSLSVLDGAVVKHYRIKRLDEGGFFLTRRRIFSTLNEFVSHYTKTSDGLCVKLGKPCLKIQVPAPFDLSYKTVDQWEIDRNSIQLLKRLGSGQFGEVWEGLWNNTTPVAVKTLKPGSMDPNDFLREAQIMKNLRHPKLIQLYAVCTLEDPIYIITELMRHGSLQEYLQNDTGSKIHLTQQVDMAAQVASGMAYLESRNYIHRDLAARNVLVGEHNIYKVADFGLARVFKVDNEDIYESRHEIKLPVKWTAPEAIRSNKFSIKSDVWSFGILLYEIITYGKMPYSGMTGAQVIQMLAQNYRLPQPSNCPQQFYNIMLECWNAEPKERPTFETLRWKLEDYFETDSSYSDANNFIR
Protocol: as §1

YES1 = YES1 (Homo sapiens, UniProt P07947)
Protocol: as §1

EGFR = EGFR (Homo sapiens, UniProt P00533)
Protocol: as §1

TEK = TEK (Homo sapiens, UniProt Q02763)
Chain of TEK (Q02763 23-1124): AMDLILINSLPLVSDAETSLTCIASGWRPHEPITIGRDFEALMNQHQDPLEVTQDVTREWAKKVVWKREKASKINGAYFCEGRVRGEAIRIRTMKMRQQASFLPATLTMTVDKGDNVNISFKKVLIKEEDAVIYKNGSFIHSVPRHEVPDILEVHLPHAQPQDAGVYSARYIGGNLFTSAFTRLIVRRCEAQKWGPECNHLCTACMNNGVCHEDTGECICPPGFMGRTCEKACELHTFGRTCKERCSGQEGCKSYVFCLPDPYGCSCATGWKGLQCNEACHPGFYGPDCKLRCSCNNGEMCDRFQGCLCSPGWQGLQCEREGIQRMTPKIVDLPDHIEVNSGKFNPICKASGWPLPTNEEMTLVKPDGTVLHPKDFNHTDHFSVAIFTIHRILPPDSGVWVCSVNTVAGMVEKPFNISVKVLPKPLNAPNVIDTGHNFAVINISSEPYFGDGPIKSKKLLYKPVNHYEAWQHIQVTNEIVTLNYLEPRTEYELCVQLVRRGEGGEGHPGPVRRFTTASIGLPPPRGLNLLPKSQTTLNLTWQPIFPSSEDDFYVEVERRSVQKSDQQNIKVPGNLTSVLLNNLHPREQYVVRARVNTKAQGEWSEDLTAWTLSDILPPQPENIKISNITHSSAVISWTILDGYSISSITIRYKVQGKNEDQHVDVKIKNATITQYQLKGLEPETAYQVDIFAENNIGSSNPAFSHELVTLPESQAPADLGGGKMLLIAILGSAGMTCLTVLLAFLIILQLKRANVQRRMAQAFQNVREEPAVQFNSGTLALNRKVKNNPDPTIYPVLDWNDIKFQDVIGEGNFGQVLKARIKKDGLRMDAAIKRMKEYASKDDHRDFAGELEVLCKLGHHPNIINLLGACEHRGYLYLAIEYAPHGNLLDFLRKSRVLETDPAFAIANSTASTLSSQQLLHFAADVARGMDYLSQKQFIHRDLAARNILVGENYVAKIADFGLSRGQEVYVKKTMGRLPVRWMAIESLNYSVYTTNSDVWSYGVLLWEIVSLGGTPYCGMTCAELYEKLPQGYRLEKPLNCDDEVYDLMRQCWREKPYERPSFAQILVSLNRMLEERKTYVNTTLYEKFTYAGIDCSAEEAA
Protocol: as §1

IC50 (EPHA4): > 10 µM
inhibition at 1 µM (EPHA4): 0.58%
IC50 (INSRR): > 10 µM
inhibition at 1 µM (INSRR): 0.62%
IC50 (JAK2): > 10 µM
inhibition at 1 µM (JAK2): 0.18%
IC50 (FGFR3): > 10 µM
inhibition at 1 µM (FGFR3): 2.84%
IC50 (MST1R): > 10 µM
inhibition at 1 µM (MST1R): 5.02%
IC50 (SYK): > 10 µM
inhibition at 1 µM (SYK): 1.92%
IC50 (HCK): > 10 µM
inhibition at 1 µM (HCK): 0.86%
IC50 (FER): > 10 µM
inhibition at 1 µM (FER): 0.03%
IC50 (LCK): > 10 µM
inhibition at 1 µM (LCK): 0.77%
IC50 (PDGFRB): > 10 µM
inhibition at 1 µM (PDGFRB): 0.1%
IC50 (EPHA1): > 10 µM
inhibition at 1 µM (EPHA1): 0.02%
IC50 (INSR): > 10 µM
inhibition at 1 µM (INSR): 2.53%
IC50 (TEC): > 10 µM
inhibition at 1 µM (TEC): 0.67%
IC50 (TXK): > 10 µM
inhibition at 1 µM (TXK): 0.09%
IC50 (SRC): > 10 µM
inhibition at 1 µM (SRC): 3.24%
IC50 (CSF1R): > 10 µM
inhibition at 1 µM (CSF1R): 2.02%
IC50 (DDR2): > 10 µM
inhibition at 1 µM (DDR2): 0.7%
IC50 (CSK): > 10 µM
inhibition at 1 µM (CSK): 0.74%
IC50 (JAK1): > 10 µM
inhibition at 1 µM (JAK1): 1.21%
IC50 (NTRK2): > 10 µM
inhibition at 1 µM (NTRK2): 1.22%
IC50 (FLT3): > 10 µM
inhibition at 1 µM (FLT3): 0.52%
IC50 (PDGFRA): > 10 µM
inhibition at 1 µM (PDGFRA): 0.37%
IC50 (EPHA5): > 10 µM
inhibition at 1 µM (EPHA5): 3.17%
IC50 (EPHA8): > 10 µM
inhibition at 1 µM (EPHA8): 0.72%
IC50 (IGF1R): > 10 µM
inhibition at 1 µM (IGF1R): 0.91%
IC50 (EPHA7): > 10 µM
inhibition at 1 µM (EPHA7): 0.91%
IC50 (PTK2B): > 10 µM
inhibition at 1 µM (PTK2B): 0.73%
IC50 (ITK): > 10 µM
inhibition at 1 µM (ITK): 0.75%
IC50 (FRK): > 10 µM
inhibition at 1 µM (FRK): 0.95%
IC50 (YES1): > 10 µM
inhibition at 1 µM (YES1): 1.22%
IC50 (EGFR): > 10 µM
inhibition at 1 µM (EGFR): 0.37%
IC50 (TEK): > 10 µM
inhibition at 1 µM (TEK): 4.16%
Structure (SMILES): CCS(=O)(=O)Cc1cnc(Oc2c(F)cc(F)cc2OCCCCOc2ccc(/C=C/c3cc(OC)cc(OC)c3)cc2)c(-c2cc(C)c3c(=O)[nH]ccn23)c1 [BST-4]
